Measured values published in publication PMC5554220, “A Novel Aldosterone Antagonist Limits Renal Injury in 5/6 Nephrectomy” (Scientific Reports, 2017).

Legend:
[1] = tested on: human androgen receptor (hAR); assay: Radioligand binding, [3H]mibolerone, hAR expressed in Sf9; conditions: selectivity
Experimental: Full-length human mineralocorticoid receptor (hMR) to be used in radioligand binding was isolated from a human kidney cDNA library (Clontech, Palo Alto, CA). […] The hMR, hPR, and hAR cDNAs were subcloned in the eukaryotic expression vector pcDNA3. Methods for the expression of functionally active hMR, hAR and hPR utilizing the baculovirus expression system were described previously, [31].
Affinity of ligands to the soluble receptor was determined using vacuum filtration methods, preparing soluble receptors in 96-well Falcon polystyrene plates (BD Biosciences, Bedford, MA) in a total volume of 250 μl. […] Binding studies for ligands for hPR and hAR were determined using [1,2,6,7-3H(N)] […] Specific binding of 3H-progesterone for hPR and 3H-mibolerone for hAR was determined in the presence and absence of 1 μM mifepristone. Inhibition constants (Ki), were determined either from the Cheng-Prusoff equation[32], or directly using non-linear regression curve fitting to a three-parameter one-site competitive equation. […] Protein was measured using colorimetric detection and quantification of bicinchoninic acid (BCA Protein Assay, Pierce, Rockford, IL). […] Concentration response curves were analyzed statistically using a four-parameter logistic equation (Hill equation for sigmoid curves). […]

[2] = tested on: rats with 5/6 renal ablation (Nx); assay: Protocol 1 (early treatment), 5/6 renal ablation (Nx); assay type: in vivo, male Munich-Wistar rats
From the text: One-hundred forty-five adult male Munich-Wistar rats, obtained from a local facility at the Faculty of Medicine, University of São Paulo, weighing between 220 and 250 g, were used in this study. All experimental procedures were approved by the local Research Ethics Committee (Comissão de Ética para Análise de Projetos de Pesquisa do Hospital das Clínicas da Faculdade de Medicina da Universidade de São Paulo, CAPPesq, process n° 0905/09), and carried out following strictly our institutional guidelines and current international standards for manipulation and care of laboratory animals. Body weights and general conditions were assessed daily. Five-sixths renal ablation (Nx) was performed as a single-step procedure under anesthesia with ketamine 50 mg/kg and xylazine 10 mg/kg im. After ventral laparotomy, the right kidney was excised and two or three branches of the left renal artery were ligated, so as to promote infarction of two-thirds of the left kidney. The operation was invariably well tolerated. Sham-operated rats underwent anesthesia and manipulation of the renal pedicles without removal of renal mass. After surgery, rats received enrofloxacin and, upon recovery, had free access to tap water and regular rodent chow containing 0.5 Na and 22% protein (Nuvital Labs, Curitiba, Brazil), and were kept at 23 ± 1 °C and 60 ± 5% relative air humidity, under an artificial 12–12 hour light/dark cycle. Rats were then treated following two different experimental protocols (described later).
In this first protocol, Nx rats were divided into groups: NX + V (N = 8), receiving vehicle; NX + Eple (N = 8), receiving oral (mixed with the chow) Eple, 150 mg/kg/day; and Nx + Ly (N = 8), receiving oral Ly, 20 mg/kg/day. A group of sham-operated rats (S, N = 7) was also studied. Treatments were started 24 h after surgery. Rats were followed during 60 days, with determination of TCP and UalbV on Days 30 and 60. TCP was assessed with an optoelectronic automated device (Visitech Systems, Apex, NC), after rats had been preconditioned so as to remain calm during the procedure. UalbV was measured with a conventional immunodiffusion technique. On Day 60, rats were anesthetized as described before, and blood was collected from the abdominal aorta for determination of serum creatinine, serum K^+, PRA and PAC. The remnant kidney was then perfusion-fixed with Duboscq-Brazil solution after a brief washout with saline to remove blood from renal vessels, and prepared for histomorphometric and immunohistochemical analyses using conventional sequential techniques.
Histomorphometric analysis was performed blindly by two independent observers. The extent of glomerular injury was estimated, in PAS-stained sections, by determining the percentage of glomeruli with sclerotic lesions. The fraction of the renal cortical area occupied by interstitial tissue (%INT) was estimated in 25 consecutive microscopic fields of Masson-stained sections by a point-counting technique, at a final magnification of 200X, under a 144-point grid.
PRA and PAC were determined using commercially available radioimmunoassay kits (Renin Active IRMA and Aldosterone Active RIA, Beckman Coulter, Carlsbad, CA).

O=c1[nH]c2ccc(/C=C3\c4ccc(F)cc4COc4cc(F)ccc43)cc2[nH]1 [Ly]
Ratio of Ki's hAR: hMR [1]: 202
Albumin excretion rate (UalbV) ([2]; 60 days after ablation, Eple 150 mg/kg/day, Ly 20 mg/kg/day oral): significantly lower in Ly-treated than in untreated or Eple-treated rats
Fractional cortical interstitial area ([2]; Day 60): significantly diminished
Left kidney weight corrected for body weight (renal hypertrophy) ([2]; Day 60): renal hypertrophy was significantly attenuated
Plasma renin activity (PRA) ([2]; Day 60): markedly increased PRA
PAC relative to sham (S) ([2]; Day 60, higher than in S): over 30 fold
Plasma K+ levels ([2]; Day 60, versus Nx + V): not aggravated
Tail-cuff pressure (TCP) ([2]; Eple 150 mg/kg/day, Ly 20 mg/kg/day oral): More pronounced attenuation of hypertension
